The text below walks through data of US12070443B2, “Methods of treating and preventing breast cancer with S-equol” (The Board of Regents of the University of Texas System, priority 2018, dated 2024).

“Also recorded” adds a separate entry of the source. Like-named read-outs stand apart in the source and are kept apart here.

One experiment has as its system Ki67 expression. To be noted: after two weeks, IMPACT trial; cited from earlier work.
Experiment [1] relates to AT3 mammary tumor cell line. The experiment can be described thus: AT3 mammary tumor challenge in mice, S-equol and/or anti-PD-1. Format: in vivo. To be noted: AT3 tumors. The method, then: The following three murine mammary tumor lines were tested to determine the effects of a PD-1 inhibitor, S-equol and a combination of the two therapies on tumor growth: (1) E0771 (B6 background), (2) AT-3 (B6 background), and (3) 4T1 (BalbC background). This experimental design includes four arms (using AT-3 as an example): (1) controls, (2) αPD-1, (3) S-equol, and (4) αPD-1+S-equol (FIG. 3) by injecting into mice 2×10^5 cells subcutaneously into the 4th mammary gland fat pad.

Experiment [2] relates to MDA-MB-231 cell-derived xenograft tumor. As to the kind of experiment: MDA-MB-231 xenograft in athymic nude mice. Format: in vivo. The method, then:
Further work in a preclinical animal model supports the notion of using S-equol to treat TNBC breast cancer. In immunocompromised mouse xenograft experiments, which used MDA-MB-231, a human TNBC breast cancer cell line, growth of tumors was suppressed by 60% with S-equol treatment compared to control. 5×10^6 MDA-MB-231 cells were injected orthotopically into mammary gland fat pads of 6 week-old female athymic nude mice (Harlan). When the tumor masses reached 50 to 80 mm^3 (about one week after the inoculation), the mice were given daily subcutaneous injections of S-equol (20 or 60 mg/kg per day) or PBS as a vehicle control. Tumor development was followed by caliper measurements along two orthogonal axes: length (L) and width (W) and volume (V) was estimated by the formula V=[L×(W^2)]/2. Xenograft tumors harvested from mice were fixed in 10% neutral-buffered formalin, dehydrated, embedded in paraffin, and sectioned at 3 μm thickness. Representative tumor sections from vehicle control and S-equol-treated mice were tested for Ki-67 expression to assess cell proliferation, and for ERβ pY36. Statistical significance in the experiments was assessed by two-tailed Student's t test. In all assays, p<0.05 was considered statistically significant. See, Yuan et al. 2016 listed below, which is incorporated by reference herein for all purposes.

The target in the next experiment is T1, ERβ pY36 (Homo sapiens, UniProt Q92731).
T1 construct: MDA-MB-231, a human TNBC breast cancer cell line; endogenous in cells; host or cells: MDA-MB-231 (human TNBC line; also as xenograft tumours in athymic nude mice)
The experiment can be described thus: pY36-specific phosphorylation signal in MDA-MB-231 cells. Format: cell-based. Particulars: MDA-MB-231 cells (FIG. 18A).

The subject of experiment [3] is TNBC. The experiment can be described thus: Pilot biomarker clinical study of Ki67 in TNBC subjects. Format: in vivo, human. The method, then: A pilot biomarker clinical study was performed in 20 subjects with documented TNBC to determine the effect of the ERβ agonist S-equol on Ki67 an indicator of tumor cell proliferation. Tumor cell proliferation was measured by immunohistological staining for Ki-67. See, FIG. 13 for the outline of the protocol. Ki-67 is encoded by the gene MKI67 gene and is required to maintain individual mitotic chromosomes dispersed in the cytoplasm following nuclear envelope disassembly. Measuring the fraction of Ki-67-positive cells in a tumor is known to be a reliable parameter for assessing cancer patient prognosis. Subjects with TNBC are known to have very high levels of Ki67.
Patients enrolled in the study received a history, physical, laboratory assessment, radiological imaging, and diagnostic biopsies. Immunohistochemistry (IHC) of Ki67 (proliferation marker), total ERβ, and pY36-ERβ (phosphorylated ERβ), B7H1 (also known as PDL-1) and BRCA1 (breast cancer 1, early onset) were conducted using core needle biopsy tissue samples prior to treatment. Patients were given oral S-equol 50 mg, twice daily for approximately two weeks (10-21 days) prior to the scheduled oncologic surgeries or start of primary systemic therapy. Tumor samples were obtained from the surgery or the two-week repeat core needle biopsy. Post-treatment IHC evaluation of Ki67, total ERβ, phosphorylated ERβ (pY36) and BRCA1 were obtained. Ki67 reduction is a validated surrogate marker of both short and long term hormonal therapy efficacy in trials of human breast cancer and was compared pre- and post-treatment with S-equol. […] A c-DNA microarray platform was also used to discover downstream transcriptional targets of ERβ resulting from activation by S-equol.
Women eligible for the study had newly diagnosed, previously untreated, triple negative breast cancer, with an intact primary breast tumor of any size. All stages of the disease were eligible. They took S-equol during the time they underwent standard preoperative evaluation or pre-therapeutic work-up for advanced disease, such as staging procedures or central line placement. If primary surgery was performed, tissue leftover after standard diagnostic evaluation was used for the two-week biomarker assessment. […] See, FIG. 9.
A standard procedure for acquiring core biopsy with a Bard 14-gauge needle was utilized for determining TNBC prior to enrollment. Whenever possible, the tumor tissues used for IHC analyses were acquired at the same time as the diagnostic core biopsy. The tissue samples were sent for staining of total and pY36 ERβ and Ki67, and analyzed. Testing for ERα, PR, and HER-2 was performed using validated methods. TNBC tumors were defined as less than 5% nuclear staining of carcinoma cells for ERα and PR and either 0, 1, or 2+ staining for HER-2 by IHC. Whole-Genome DASL HT platform from Illumina, which is designed for gene expression profiling with extremely low input of RNA (50 pg), was used to interrogate paired FFPE tissue obtained before and after exposure to S-equol.
The primary analysis estimated the geometric mean change of the Ki67 expression from baseline to two weeks. This was performed using a one-sample t-test of the pre/post differences in the log-transformed data, and summarized by the 95% confidence interval. […]

The subject of experiment [4] is TNBC. Particulars: cited from earlier work.
Setting [5] is: of 17 evaluable patients, S-equol 50 mg twice daily.

T1 sequence (Q92731 whole entry): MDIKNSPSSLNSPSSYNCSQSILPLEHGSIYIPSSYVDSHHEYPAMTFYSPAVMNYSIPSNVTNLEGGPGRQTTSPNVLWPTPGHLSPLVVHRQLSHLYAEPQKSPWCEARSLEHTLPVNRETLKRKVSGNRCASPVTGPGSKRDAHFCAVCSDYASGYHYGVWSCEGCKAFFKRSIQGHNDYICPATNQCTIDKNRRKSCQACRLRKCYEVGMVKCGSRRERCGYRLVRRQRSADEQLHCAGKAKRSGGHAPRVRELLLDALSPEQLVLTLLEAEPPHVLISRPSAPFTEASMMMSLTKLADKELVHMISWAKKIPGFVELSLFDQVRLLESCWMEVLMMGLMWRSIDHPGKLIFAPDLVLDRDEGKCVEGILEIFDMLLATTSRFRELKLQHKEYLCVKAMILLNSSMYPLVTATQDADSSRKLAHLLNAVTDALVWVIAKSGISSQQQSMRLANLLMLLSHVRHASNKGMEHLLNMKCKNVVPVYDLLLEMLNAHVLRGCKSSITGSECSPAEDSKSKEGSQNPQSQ

In the case of `CC/C(=C(\c1ccccc1)c1ccc(OCCN(C)C)cc1)c1ccccc1` [tamoxifen], in the experiment with Ki67 expression, the “change in the geometric mean of Ki67 expression” value is recorded as −59.5%.
`Oc1ccc([C@H]2COc3cc(O)ccc3C2)cc1` [S-equol]: the tumor size result in experiment [1] (excised tumors (FIG. 4C)) is “reduce tumor size compared to control”. In addition, in experiment [1] (anti-PD-1 200 μg every 3 days, S-equol 50 mg/kg per day (FIG. 4B)), the tumor weight entry is “reduce tumor weight compared to control”. In experiment [1] (anti-PD-1 200 μg every 3 days, S-equol 50 mg/kg per day, over 35 days post-challenge (FIG. 4A)), the tumor volume result is “reduce tumor volume compared to control”. In addition, in experiment [2] (daily subcutaneous S-equol 20 or 60 mg/kg per day), the “growth of tumors suppressed compared to control” value is listed as 60%. For the same compound, in experiment [2] (in words (FIGS. 8, 15, 18B)), the xenograft tumor growth entry was “inhibits tumor growth in vivo; also recorded: reduces the growth of TNBC cells; also recorded: inhibited”. Besides, the pY36-specific phosphorylation signal entry on ERβ pY36 is on record as “enhanced”. Moreover, in the experiment on TNBC [3] (setting [5]), the “patients with 0-20% reduction in Ki-67” value amounted to 7 patients, the “patients with greater than 20% reduction in Ki-67” value is reported as “one”, the “patients with greater than 30% reduction in Ki-67” value is reported as 4 patients and the “patients with no reduction in Ki-67” value is recorded as 5 patients. The “Ki67 change pre- vs post-treatment” value with TNBC [3] (oral S-equol 50 mg twice daily, 10-21 days, TNBC patients) was “measurable decrease in Ki67; also recorded: measurable decline in Ki67”.
Regarding pembrolizumab: an αPD-1 antibody, the response rate in the experiment on TNBC [4] (Phase 1, 27 women, pretreated chemotherapy resistant metastatic TNBC expressing PD-L1) was 18.4%.
In the case of `CC(C)(C#N)c1cc(Cn2cncn2)cc(C(C)(C)C#N)c1` [anastrazole], the “change in the geometric mean of Ki67 expression” value with Ki67 expression was −76%.
With avelumab: another αPD-L1 antibody, the response rate with TNBC [4] (168 TNBC tumors unselected for PD-L1 expression) is 8.6%.
Regarding atezolizumab: an αPD-L1 antibody, in the experiment on TNBC [4] (21 evaluable PD-L1 expressing TNBC tumors), the response rate is reported as 19%.
